Measured values reported in PMC6934184, “Selective DNA-PKcs inhibition extends the therapeutic index of localized radiotherapy and chemotherapy” (The Journal of Clinical Investigation, 2019).

Target: T1, DDR1 (Homo sapiens, UniProt Q08345)
T1 construct: purchased Thermo Fisher Scientific (Life Technologies) SelectScreen
Assay: SelectScreen LanthaScreen
Type: binding
Conditions: read-out: % displacement
Method in brief: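 NU5455 was profiled across the SelectScreen Broad panel of kinase activity and binding assays. Z'LYTE reactions such as CSF1R ran at apparent Km ATP, while the Adapta CAMK1 assay used ATP listed as 10. Values are given as percent.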

T1 sequence (Q08345 19-913): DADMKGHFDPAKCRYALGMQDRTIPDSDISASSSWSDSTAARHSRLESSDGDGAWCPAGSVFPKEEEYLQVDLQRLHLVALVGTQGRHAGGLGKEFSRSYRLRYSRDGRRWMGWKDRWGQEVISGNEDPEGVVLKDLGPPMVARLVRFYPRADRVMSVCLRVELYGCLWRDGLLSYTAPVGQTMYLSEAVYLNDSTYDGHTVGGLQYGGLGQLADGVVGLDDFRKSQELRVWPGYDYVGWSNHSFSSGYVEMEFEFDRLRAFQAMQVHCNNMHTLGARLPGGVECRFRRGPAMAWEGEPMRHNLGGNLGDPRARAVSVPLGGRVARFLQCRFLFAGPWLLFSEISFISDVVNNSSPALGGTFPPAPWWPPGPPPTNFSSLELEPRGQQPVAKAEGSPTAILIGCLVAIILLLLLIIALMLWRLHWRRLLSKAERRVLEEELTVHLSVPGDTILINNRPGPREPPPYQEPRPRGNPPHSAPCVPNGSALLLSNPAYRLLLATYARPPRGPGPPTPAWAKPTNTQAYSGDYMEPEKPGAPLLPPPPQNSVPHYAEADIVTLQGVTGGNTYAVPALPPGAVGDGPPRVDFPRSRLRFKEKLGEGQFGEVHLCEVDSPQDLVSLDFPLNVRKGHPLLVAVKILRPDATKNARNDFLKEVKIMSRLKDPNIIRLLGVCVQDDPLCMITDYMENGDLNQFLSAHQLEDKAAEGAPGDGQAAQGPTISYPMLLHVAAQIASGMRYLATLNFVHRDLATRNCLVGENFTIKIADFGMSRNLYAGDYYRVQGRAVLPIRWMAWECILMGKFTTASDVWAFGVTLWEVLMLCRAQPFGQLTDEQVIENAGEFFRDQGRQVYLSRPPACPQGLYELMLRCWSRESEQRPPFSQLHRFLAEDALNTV

`CN(C(=O)CN1CCOCC1)c1ccc2sc3c(-c4cccc5c(=O)cc(N6CC7CCC(C6)O7)oc45)cccc3c2c1` [NU5455] gave an inhibition at 1 µM of -1.8%.
